From patent publication US12115208B2, “Small-molecule adjuvants for antibiotics to address antibiotic resistance” (HIGH POINT UNIVERSITY, priority 2017, dated 2024)
pIC50: −log10 of the molar value. Where two headings read alike, the source gives them in different places.

Key:
[1] = system: S. aureus ATCC 43300 (MRSA); test: Minimum inhibitory concentration, broth microdilution; type: cell-based, Staphylococcus aureus; settings: compound alone; S. aureus ATCC 43300 (MRSA); CAMHB, 18 h; read-out: MIC
Experimental: (§1) The compounds were then analyzed for antibiotic repotentiation activity. […] The tested strains included USA300, which is a common and particularly virulent strain of community-acquired MRSA.

S. aureus 43300 (MRSA) = test: Antibiotic repotentiation (antibiotic MIC with/without compound); type: cell-based, Staphylococcus aureus; settings: S. aureus 43300 (MRSA); for Fold Reduction: oxacillin MIC
Experimental: The overnight culture was diluted into fresh CAMHB to a concentration of 5×10^5 CFU/ml. […] On the same plate, a standard microdilution MIC with the tested antibiotics and no added compound was also performed to compare the antibiotic MIC in the presence and absence of compound. […] Fold reductions were calculated by dividing the MIC of the antibiotic without compound by the MIC of the antibiotic in the presence of compound.
as §1

[2] = system: S. epidermidis ATCC 49461 biofilm; test: Biofilm inhibition, crystal violet assay; type: cell-based, Staphylococcus epidermidis; settings: read-out: Inhibition of biofilm formation IC50
Experimental: A standard static crystal violet assay was used to quantify biofilm inhibition.^45 Cultures of S. aureus or S. epidermidis were grown overnight in TSBG (tryptic soy broth with 5% glucose) at 37° C. with shaking. These cultures were used to inoculate fresh TSBG to a calculated optical density of 0.01 at 600 nm (OD600). […] Untreated aliquots were used as a positive control and water served as a negative control. 100 μl of these suspensions were added to the wells of a 96-well polyvinylchloride microtiter plate. […] After incubation, media was discarded and the plates were washed with water to remove non-adherent cells. Adherent biofilms were stained with 110 μl of crystal violet (0.1% in water) and incubated at room temperature for thirty minutes. The crystal violet staining solution was discarded and plates were washed with water to remove excess stain. The resulting stained biofilms were solubilized with 200 μL of 95% ethanol for 10 minutes. 125 μl of the ethanol solutions were transferred to a clear polystyrene microtiter plate for evaluation. Absorbance at 540 nm was recorded using a BioTek Synergy H1 microplate reader. The absorbance of the negative control lanes was subtracted from the experimental values to account for background staining. Percent inhibition was calculated by comparison of the absorbance values of control versus treated wells under identical conditions.

[3] = Staphylococcus epidermidis, ATCC49461, 30 h

| Oxacillin MIC (S. aureus 43300 (MRSA); +50 μM compound) [µg/mL] | SMILES | Fold Reduction (S. aureus 43300 (MRSA); +50 μM compound) | also measured |
| --- | --- | --- | --- |
| – | COc1ccnc2c1ccc1c(OC)ccnc12 [Compound V-12] | – | MIC [1]: 31.25 µM; Oxacillin MIC (S. aureus 43300 (MRSA); +7.8 μM compound): 4 µg/mL; Fold Reduction (S. aureus 43300 (MRSA); +7.8 μM compound): 8; pIC50 ([2]; 30 h): < 4.00 |
| – | c1ccc(-c2ccnc3c2ccc2c(-c4ccccc4)ccnc23)cc1 [Compound V-13] | – | MIC [1]: 6.25 µM; Oxacillin MIC (S. aureus 43300 (MRSA); +[…] compound): 16 µg/mL; pIC50 ([2]; 30 h): < 4.00 |
| – | Cc1cnc2c(ccc3c(C)c(C)cnc32)c1C [Compound V-14] | – | MIC [1]: 3.125 µM; Oxacillin MIC (S. aureus 43300 (MRSA); +0.78 μM compound): 32 µg/mL; Fold Reduction (S. aureus 43300 (MRSA); +0.78 μM compound): 1; pIC50 ([2]; 30 h): < 4.00 |
| 32 | CCN1c2ccccc2CCc2ccc(Cl)cc21 [II-2] | 1 | – |
| 16 | CCCCCN1c2ccccc2CCc2ccc(Cl)cc21 [II-3] | 2 | – |
| 32 | CCCCCCCCN1c2ccccc2CCc2ccc(Cl)cc21 [II-4] | 1 | – |
| 8 | C=CCN1c2ccccc2CCc2ccc(Cl)cc21 [II-5] | 4 | – |
| 32 | Clc1ccc2c(c1)N(Cc1ccccc1)c1ccccc1CC2 [II-6] | 1 | – |
| – | CCCCN1CCC(=C2c3ccc(Cl)cc3CCc3cccnc32)CC1 [III-1, 11-(1-butylpiperidin-4-ylidene)-8-chloro-6,11-dihydro-5H-benzo[5,6]cyclohepta[1,2-b]pyridine] | 1 | pIC50 [2, 3]: < 4.10 |
| – | CCCCCN1CCC(=C2c3ccc(Cl)cc3CCc3cccnc32)CC1 [III-2, 8-chloro-11-(1-pentylpiperidin-4-ylidene)-6,11-dihydro-5H-benzo[5,6]cyclohepta[1,2-b]pyridine] | 32 | pIC50 [2, 3]: 4.57 |
| – | CCCCCCCCCN1CCC(=C2c3ccc(Cl)cc3CCc3cccnc32)CC1 [III-3, 8-chloro-11-(1-nonylpiperidin-4-ylidene)-6,11-dihydro-5H-benzo[5,6]cyclohepta[1,2-b]pyridine] | 1 | pIC50 [2, 3]: < 4.10 |
| – | Clc1ccc2c(c1)CCc1cccnc1C2=C1CCN(Cc2ccccc2)CC1 [III-4] | 1 | pIC50 [2, 3]: < 4.30 |
| – | CC(C)c1ccc(CN2CCC(=C3c4ccc(Cl)cc4CCc4cccnc43)CC2)cc1 [III-5, 8-chloro-11-(1-(4-isopropylbenzyl)piperidin-4-ylidene)-6,11-dihydro-5H-benzo[5,6]cyclohepta[1,2-b]pyridine] | 16 | pIC50 [2, 3]: 4.21 |

| SMILES | Oxacillin MIC (S. aureus 43300 (MRSA); +50 μM compound) [µg/mL] | Fold Reduction (S. aureus 43300 (MRSA); +50 μM compound) | also measured |
| --- | --- | --- | --- |
| NC1=Nc2ccccc2Oc2ccc(Cl)cc21 [II-7] | 32 | 1 | – |
| CCCCCNC1=Nc2ccccc2Oc2ccc(Cl)cc21 [II-8] | 32 | 1 | – |
| CCCCCCCCNC1=Nc2ccccc2Oc2ccc(Cl)cc21 [II-9] | 32 | 1 | – |
| Clc1ccc2c(c1)C(NC1CCCCC1)=Nc1ccccc1O2 [II-10] | 32 | 1 | – |
